Experimental data published in patent publication US11273217B2, “Cancer treatment composition combining anti-CD26 antibody and other anticancer agent” (Y's AC Co., Ltd., priority 2015, dated 2022).

Columns and labels:
[1] = test system: H2452 cells; test: MTT cell growth assay, H2452; assay type: cell-based; details: 3×10^−8 M or 10^−7 M gemcitabine with cisplatin 0-1 μM and pemetrexed 0-0.3 μM; day 2
Method: (§1) MESO1 or H2452 cells (2×10^3 cells/well) were inoculated to a 96-well plate. One hour later, cisplatin or pemetrexed was added thereto at 10^−9, 10^−8, 10^−7, 10^−6, 10^−5, or 10^−4 M (n=6). At day 2, MTT assay was conducted.
H2452 cells (2×10^3 cells/well) were inoculated to a 96-well plate. One hour later, the combination of 0.03, 0.3, or 1 μM cisplatin and 0.1, 3, or 10 μg/ml YS110, or the combination of 0.01, 0.1, or 0.3 μM pemetrexed and 0.1, 3, or 10 μg/ml YS110 was added thereto (n=6). At day 2, MTT assay was conducted. Significant difference was tested by two-tailed t-test (vs Cont).
(§2) MESO1 cells (2×10^3 cells/well) or H2452 cells (2×10^3 cells/well) were inoculated to a 96-well plate. One hour later, 0.3 μM cisplatin-0.1 μM pemetrexed combination, or YS110 (10 μg/ml) plus the 0.3 μM cisplatin-0.1 μM pemetrexed combination was added thereto (n=6). At day 2, MTT assay was conducted. Significant difference was tested by two-tailed t-test (vs Cont).
(§3) Gemcitabine was studied for its effect on the growth of a mesothelioma cell line. A mesothelioma cell line MESO1, JMN, H2452, or H226 (2×10^3 cells/well) was inoculated to a 96-well plate. One hour later, gemcitabine (10^−9, 10^−8, 10^−7, 10^−6, 10^−5, or 10^−4 M) was added thereto (N=6). 2 days later, MTT assay was conducted. Significant difference was tested by two-tailed t-test (vs Cont).
H2452 cells (2×10^3 cells/well) were inoculated to a 96-well plate. One hour later, gemcitabine (0, 10^−8, 3×10^−8, or 10^−7 M) and YS110 (0, 1, 3, or 10 μg/ml) were added thereto in combination. At day 2, MTT assay was conducted. Significant difference was tested by two-tailed t-test (vs Cont). Next, interaction in concomitant use of medications was studied (n=6). The interaction between YS110 and gemcitabine used concomitantly was analyzed by two-way ANOVA.
(§4) MESO1, JMN, H2452 or H226 cells (2×10^3 cells/well were inoculated to a 96-well plate. One hour later, 3×10^−8 M or 10^−7 M gemcitabine was added thereto by concomitant use with the combination of cisplatin (0, 0.1, 0.3, or 1 μM) and pemetrexed (0, 0.03, 0.1, or 0.3 μM) (n=6). At day 2, MTT assay was conducted.
(§5) The growth inhibitory effect of gemcitabine (10^−9 to 10^−4 M) was compared using MESO1, H2452, JMN, and H226 cell lines.

[2] = test system: H226 cells; test: MTT cell growth assay, H226; assay type: cell-based
Method: as §3
H226 cells (2×10^3 cells/well) were inoculated to a 96-well plate. One hour later, gemcitabine (0, 10^−8, 3×10^−8, or 10^−7 M) and YS110 (0, 1, 3, or 10 μg/ml) were added thereto in combination. At day 2, MTT assay was conducted. Significant difference was tested by two-tailed t-test (vs Cont). Next, interaction in concomitant use of medications was studied (n=6). The interaction between YS110 and gemcitabine used concomitantly was analyzed by two-way ANOVA.
as §4, §5

[3] = test system: JMN cells; test: In vivo JMN cell growth in SCID mice (tumor weight); details: YS110 10 mg/kg, gemcitabine 10 mg/kg, intraperitoneal, days 2 and 4; day 7
[4] = test system: JMN cells; test: MTT cell growth assay, JMN; assay type: cell-based
Method: as §3
JMN cells (2×10^3 cells/well) were inoculated to a 96-well plate. One hour later, gemcitabine (0, 3×10^−10, 10^−9, or 3×10^−8 M) and YS110 (0, 1, 3, or 10 μg/ml) were added thereto in combination. At day 2, MTT assay was conducted. Significant difference was tested by two-tailed t-test (vs Cont). Next, interaction in concomitant use of medications was studied (n=6). The interaction between YS110 and gemcitabine used concomitantly was analyzed by two-way ANOVA.
as §4
(§6) The growth inhibitory effects of cisplatin (10^−9 to 10^−4 M) and pemetrexed (10^−9 to 10^−4 M) were compared using the MESO1 and JMN cell lines.
as §5

[5] = test system: H226; test: In vivo growth of epithelioid mesothelioma cell H226 in SCID mice (tumor weight); details: YS110 10 mg/kg, gemcitabine 20 mg/kg, intraperitoneal, days 2 and 4; day 7
Method: H226 (3.8×10^5 cells/animal) was subcutaneously transplanted to the backs of female SCID mice. The day of transplantation was defined as day 0. YS110 (10 mg/kg), gemcitabine (20 mg/kg), or YS110 (10 mg/kg)+gemcitabine (20 mg/kg) was intraperitoneally administered to the mice twice (days 2 and 4) (n=6). At day 7, their tumors were excised, and the tumor weights were measured. Significant difference was tested by two-tailed t-test (vs Cont). The interaction between YS110 and gemcitabine used concomitantly was analyzed by two-way ANOVA.

[6] = test system: MESO1 cells; test: MTT cell growth assay, MESO1; assay type: cell-based; details: 3×10^−8 M or 10^−7 M gemcitabine with cisplatin 0-1 μM and pemetrexed 0-0.3 μM; day 2
Method: as §1
MESO1 cells (2×10^3 cells/well) were inoculated to a 96-well plate. One hour later, the combination of 0.3, 3, or 10 μM cisplatin and 0.1, 3, or 10 μg/ml YS110, or the combination of 0.03, 0.3, or 1 μM pemetrexed and 0.1, 3, or 10 μg/ml YS110 was added thereto. At day 2, MTT assay was conducted. Significant difference was tested by two-tailed t-test (vs Cont).
as §2, §3
MESO1 cells (2×10^3 cells/well) were inoculated to a 96-well plate. One hour later, gemcitabine (0, 10^−8, 3×10^−8, or 10^−7 M) and YS110 (0, 1, 3, or 10 μg/ml) were added thereto in combination. At day 2, MTT assay was conducted. Significant difference was tested by two-tailed t-test (vs Cont). Next, interaction in concomitant use of medications was studied (n=6). The interaction between YS110 and gemcitabine used concomitantly was analyzed by two-way ANOVA.
as §4, §6, §5

[7] = 3×10^−8 M or 10^−7 M gemcitabine with cisplatin 0-1 μM and pemetrexed 0-0.3 μM, day 2

`Nc1ccn([C@@H]2O[C@H](CO)[C@@H](O)C2(F)F)c(=O)n1` [gemcitabine] was tested, and the “effect of gemcitabine on the growth inhibitory action of cisplatin-pemetrexed” value [1] was “did not potentiate”, the “effect of gemcitabine on the growth inhibitory action of cisplatin-pemetrexed” value [2, 7] was “did not potentiate” and the “cell growth, gemcitabine dose-response compared among mesothelioma cell lines (in words)” value ([2]; 10^−9 to 10^−4 M, 2 days) was “more strongly suppressed the growth”. For the same molecule, the “growth inhibitory effect compared between H2452 and H226” value ([2]; H2452 (CD9+) vs H226 (CD9−), 10^−9 to 10^−4 M) was “significantly stronger growth inhibitory effect on H226 than on H2452”, the “inhibitory effect (tumor weight)” value [3] was 29% and the “effect of gemcitabine on the growth inhibitory action of cisplatin-pemetrexed” value [4, 7] was “did not potentiate”. The “cell growth, gemcitabine dose-response compared among mesothelioma cell lines (in words)” value ([4]; 10^−9 to 10^−4 M, 2 days) was “more strongly suppressed the growth”, the “growth inhibitory effect compared between MESO1 and JMN” value ([4]; MESO1 (CD9+) vs JMN (CD9−), 10^−9 to 10^−4 M) was “significantly stronger growth inhibitory effect on JMN than on MESO1” and the “inhibitory effect (tumor weight)” value [5] was 29%. The “effect of gemcitabine on the growth inhibitory action of cisplatin-pemetrexed” value [6] was “did not potentiate”.
